The text below walks through data of ChEMBL document CHEMBL1145141, “New 2-bromomethyl-8-substituted-benzo[c]chromen-6-ones. Synthesis and biological properties” (Bioorg Med Chem Lett, 2005).

The target of test [1] is Nitric oxide synthase, inducible (Homo sapiens) (UniProt P35228). In words: Inhibitory activity against Inducible nitric oxide synthase.
For test [2], the target named is Human immunodeficiency virus type 1 protease (Human immunodeficiency virus 1, UniProt Q72874). Description: Inhibitory concentration against HIV aspartyl protease.
Test [3] deals with Nitric oxide synthase 1 (Homo sapiens) (UniProt P29475). Description: Inhibitory activity against Neuronal nitric oxide synthase.
In test [4] the target is T1, Nitric oxide synthase 3 (Homo sapiens) (UniProt P29474).
T1 sequence (whole entry): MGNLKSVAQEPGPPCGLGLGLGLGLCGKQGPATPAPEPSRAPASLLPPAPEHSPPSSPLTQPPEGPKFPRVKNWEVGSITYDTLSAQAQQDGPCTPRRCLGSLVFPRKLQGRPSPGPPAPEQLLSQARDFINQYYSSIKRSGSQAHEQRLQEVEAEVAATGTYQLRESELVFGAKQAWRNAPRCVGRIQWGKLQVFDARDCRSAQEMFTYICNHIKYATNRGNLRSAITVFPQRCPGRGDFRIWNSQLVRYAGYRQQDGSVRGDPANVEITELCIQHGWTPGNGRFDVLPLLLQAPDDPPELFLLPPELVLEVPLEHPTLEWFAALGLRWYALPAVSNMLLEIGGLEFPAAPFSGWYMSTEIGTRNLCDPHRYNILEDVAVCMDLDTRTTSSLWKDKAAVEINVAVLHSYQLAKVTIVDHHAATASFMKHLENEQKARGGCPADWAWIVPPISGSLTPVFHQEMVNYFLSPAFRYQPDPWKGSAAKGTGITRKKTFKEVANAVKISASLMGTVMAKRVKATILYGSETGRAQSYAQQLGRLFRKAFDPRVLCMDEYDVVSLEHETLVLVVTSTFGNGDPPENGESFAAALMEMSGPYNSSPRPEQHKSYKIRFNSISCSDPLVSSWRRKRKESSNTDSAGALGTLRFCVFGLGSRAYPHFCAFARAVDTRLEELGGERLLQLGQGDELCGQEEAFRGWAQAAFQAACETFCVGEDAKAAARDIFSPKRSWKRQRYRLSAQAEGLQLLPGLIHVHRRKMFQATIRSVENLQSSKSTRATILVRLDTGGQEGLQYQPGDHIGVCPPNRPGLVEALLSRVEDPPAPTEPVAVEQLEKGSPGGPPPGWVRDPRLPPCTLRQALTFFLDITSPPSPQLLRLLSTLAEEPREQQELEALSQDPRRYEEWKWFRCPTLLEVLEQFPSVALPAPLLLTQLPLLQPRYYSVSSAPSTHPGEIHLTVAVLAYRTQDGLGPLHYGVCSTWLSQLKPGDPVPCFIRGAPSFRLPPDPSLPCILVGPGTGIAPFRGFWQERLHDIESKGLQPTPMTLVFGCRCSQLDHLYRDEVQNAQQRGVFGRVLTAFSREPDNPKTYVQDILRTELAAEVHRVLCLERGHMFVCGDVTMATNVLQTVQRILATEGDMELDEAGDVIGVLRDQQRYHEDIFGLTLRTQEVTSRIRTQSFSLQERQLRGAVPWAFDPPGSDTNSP
In words: Inhibitory activity against Endothelial nitric oxide synthase.

Test [5] is described as follows: Inhibitory concentration against Alpha-chymotrypsin.
Another test concerns the target T2, Chymotrypsin-C (Homo sapiens, UniProt Q99895).
T2 sequence (Q99895 whole entry): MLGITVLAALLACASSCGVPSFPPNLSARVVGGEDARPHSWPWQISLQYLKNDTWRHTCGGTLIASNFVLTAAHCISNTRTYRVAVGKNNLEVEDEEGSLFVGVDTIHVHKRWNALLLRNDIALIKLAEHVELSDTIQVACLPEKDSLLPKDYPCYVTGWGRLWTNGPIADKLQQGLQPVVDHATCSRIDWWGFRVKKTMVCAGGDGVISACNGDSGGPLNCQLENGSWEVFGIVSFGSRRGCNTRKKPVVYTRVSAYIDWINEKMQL
In words: Inhibitory concentration against Alpha-chymotrypsin; In active at 100 uM.

The target in test [6] is Human immunodeficiency virus type 1 protease (Human immunodeficiency virus 1) (UniProt Q72874). In words: Initial effective dose against protease of human immunodeficiency virus type 1.
For test [7] the target is unchanged. In words: Effective dose against protease of human immunodeficiency virus type 1.

Molecules are shown by their SMILES. pIC50: −log10 of the molar value. “And” between values parts separate entries of the source, which are not always exact repeats. Equal values may be shown once.

Chain of Nitric oxide synthase 1 (Homo sapiens) (P29475 whole entry): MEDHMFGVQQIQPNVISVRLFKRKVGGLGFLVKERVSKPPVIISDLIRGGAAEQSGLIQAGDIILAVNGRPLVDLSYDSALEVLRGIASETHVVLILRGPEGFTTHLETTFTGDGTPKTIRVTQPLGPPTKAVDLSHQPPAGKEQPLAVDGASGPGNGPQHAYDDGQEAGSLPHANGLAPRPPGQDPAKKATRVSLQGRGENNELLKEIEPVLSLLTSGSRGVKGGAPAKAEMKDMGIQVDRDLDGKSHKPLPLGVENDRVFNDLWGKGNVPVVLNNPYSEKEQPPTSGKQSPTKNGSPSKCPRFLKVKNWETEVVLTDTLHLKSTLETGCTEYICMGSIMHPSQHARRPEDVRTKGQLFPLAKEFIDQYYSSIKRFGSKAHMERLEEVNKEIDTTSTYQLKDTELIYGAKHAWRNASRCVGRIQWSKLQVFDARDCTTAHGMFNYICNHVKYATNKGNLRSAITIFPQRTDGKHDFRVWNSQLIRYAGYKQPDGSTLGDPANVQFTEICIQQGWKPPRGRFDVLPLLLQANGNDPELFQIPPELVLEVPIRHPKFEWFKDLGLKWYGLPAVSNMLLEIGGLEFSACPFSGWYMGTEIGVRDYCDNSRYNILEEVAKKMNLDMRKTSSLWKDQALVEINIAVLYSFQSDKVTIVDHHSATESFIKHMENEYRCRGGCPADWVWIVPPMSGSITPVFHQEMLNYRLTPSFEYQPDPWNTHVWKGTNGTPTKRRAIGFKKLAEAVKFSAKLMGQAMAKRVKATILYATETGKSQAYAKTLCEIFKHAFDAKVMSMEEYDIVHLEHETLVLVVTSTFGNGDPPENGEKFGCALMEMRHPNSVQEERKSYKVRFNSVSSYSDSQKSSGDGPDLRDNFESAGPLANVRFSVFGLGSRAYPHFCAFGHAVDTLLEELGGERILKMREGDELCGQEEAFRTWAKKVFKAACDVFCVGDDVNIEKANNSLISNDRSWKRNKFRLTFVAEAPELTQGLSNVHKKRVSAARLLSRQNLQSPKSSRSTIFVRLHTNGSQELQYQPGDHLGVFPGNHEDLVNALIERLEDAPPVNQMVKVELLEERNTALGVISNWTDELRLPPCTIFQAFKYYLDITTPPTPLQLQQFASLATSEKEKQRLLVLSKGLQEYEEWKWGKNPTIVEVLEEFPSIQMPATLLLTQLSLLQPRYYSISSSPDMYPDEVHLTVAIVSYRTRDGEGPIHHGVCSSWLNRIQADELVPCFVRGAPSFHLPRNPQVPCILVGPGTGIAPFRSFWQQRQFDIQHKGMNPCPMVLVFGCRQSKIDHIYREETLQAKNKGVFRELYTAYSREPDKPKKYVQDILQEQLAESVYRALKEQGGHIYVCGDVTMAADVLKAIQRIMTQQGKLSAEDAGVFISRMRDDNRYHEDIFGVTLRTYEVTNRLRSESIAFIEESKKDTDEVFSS
Chain of Nitric oxide synthase, inducible (Homo sapiens) (P35228 whole entry): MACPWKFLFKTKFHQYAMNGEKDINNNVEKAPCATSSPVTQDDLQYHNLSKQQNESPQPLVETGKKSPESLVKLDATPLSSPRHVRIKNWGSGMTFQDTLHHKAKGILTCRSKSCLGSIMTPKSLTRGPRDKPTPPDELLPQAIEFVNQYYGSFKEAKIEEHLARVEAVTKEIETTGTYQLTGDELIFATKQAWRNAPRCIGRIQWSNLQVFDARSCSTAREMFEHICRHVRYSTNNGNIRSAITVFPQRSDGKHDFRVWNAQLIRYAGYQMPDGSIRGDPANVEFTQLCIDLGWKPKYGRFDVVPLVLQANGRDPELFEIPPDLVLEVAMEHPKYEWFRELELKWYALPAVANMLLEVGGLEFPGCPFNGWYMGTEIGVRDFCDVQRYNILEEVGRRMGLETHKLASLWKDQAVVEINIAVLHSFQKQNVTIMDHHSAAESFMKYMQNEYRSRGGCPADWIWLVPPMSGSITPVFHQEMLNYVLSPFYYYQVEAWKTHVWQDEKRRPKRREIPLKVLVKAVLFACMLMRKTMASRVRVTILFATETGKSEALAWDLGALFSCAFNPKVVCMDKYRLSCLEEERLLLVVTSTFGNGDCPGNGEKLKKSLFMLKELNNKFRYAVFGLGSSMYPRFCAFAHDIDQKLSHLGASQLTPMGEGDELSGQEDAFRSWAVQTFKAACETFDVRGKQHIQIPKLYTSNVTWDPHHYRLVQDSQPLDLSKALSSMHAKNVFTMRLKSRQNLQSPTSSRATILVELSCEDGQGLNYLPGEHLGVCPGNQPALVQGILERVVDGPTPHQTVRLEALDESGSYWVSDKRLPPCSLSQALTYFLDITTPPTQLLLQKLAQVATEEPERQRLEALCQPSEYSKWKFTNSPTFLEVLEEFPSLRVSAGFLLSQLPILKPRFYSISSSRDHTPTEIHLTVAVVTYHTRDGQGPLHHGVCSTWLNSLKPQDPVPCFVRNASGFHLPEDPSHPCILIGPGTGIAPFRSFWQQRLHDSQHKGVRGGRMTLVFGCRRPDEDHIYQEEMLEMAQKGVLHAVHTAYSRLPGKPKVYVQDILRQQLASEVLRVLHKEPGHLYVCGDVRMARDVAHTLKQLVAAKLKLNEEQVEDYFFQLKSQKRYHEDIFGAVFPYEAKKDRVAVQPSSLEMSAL

For orientation: pIC50 means the negative decadic logarithm of the IC50, by convention in mol/L. A low value points to a high IC50. In the case of `Nc1ccc2c(c1)c(=O)oc1ccc(CBr)cc12`, the Inhibition in test [1] is 110 µM; in test [3], 200 µM; in test [4], 120 µM. Further, the pIC50 in test [2] was 4.30; in test [5], < 4.00 and ~4.00.
`Cc1ccc2oc(=O)c3cc(N)ccc3c2c1`: the Inhibition in test [1] was 150 µM; in test [3], 900 µM; in test [4] it was 600 µM. Moreover, the values for the pIC50 in test [2] and in test [5] were around 4.00 and below 4.00, respectively. The IC50 entry against Chymotrypsin-C is “Inactive”.
Take `O=[N+]([O-])c1cccc2cn[nH]c12`: the results for the Inhibition in test [1], in test [3] and in test [4] were 15 µM, 15 µM and 8 µM, respectively.
With `O=c1oc2ccc(CBr)cc2c2ccc([N+](=O)[O-])cc12`, the Inhibition in test [1] was found to be 60 µM; in test [3], 250 µM; in test [4], 120 µM. In addition, the pIC50 in test [2] is 5.00; in test [5], below 4.00.
In the case of `Cc1ccc2oc(=O)c3cc([N+](=O)[O-])ccc3c2c1`, the pIC50 in test [2] was 4.30; in test [5] it was below 4.00.
As to `CCC[C@@]1(CCc2ccccc2)CC(O)=C([C@H](CC)c2cccc(NS(=O)(=O)c3ccc(C(F)(F)F)cn3)c2)C(=O)O1`, the ED50 in test [6] amounted to 300 µM. Also, in test [7], the ED90 came to 0.1 µM.
